Measured values published in patent US20250186445A1, “TREATMENT OF CANCER WITH MENIN INHIBITORS AND IMMUNO-ONCOLOGY AGENTS” (University Health Network, priority 2022, published 2025).
Entries after “also recorded” stand apart in the source; their conditions may differ.

Experiments:
CT26 cells = test: Cytokine gene expression in CT26 cells in 2D culture treated with Compound I; format: cell-based, mouse; details: FIG. 5A
[1] = test system: CT26 colorectal carcinomas; test: CT26 colorectal carcinoma tumor growth in immunocompetent (BALB/c) mice; format: in vivo, mouse
Excerpt: Effects of Compound I in combination with PD-L1/PD-1 immune checkpoint blockade on tumor growth were investigated in CT26 tumors.

MC38 cells = test: Cytokine gene expression in MC38 cells in 2D culture treated with Compound I; format: cell-based; details: FIG. 5B

## CNc1nc(NC2CCN(Cc3ccc4c(cc(C#N)n4C[C@H](C)N4CCN(S(C)(=O)=O)CC4)c3C)CC2)c2cc(CC(F)(F)F)sc2n1 [Compound I]
CT26 cells
  induction of cytokine-related genes (IL33, CXCL10, CXCL9, CD40, CCL4): Dose-dependent induction; also recorded: induces cytokine gene expression
[1]; BALB/c mice bearing CT26, 100 mg/kg orally QD, FIG. 6A
  tumor growth: reduced tumor growth
[1]; CT26 tumors in BALB/c mice, FIGS. 6B-C
  CD8+ T-cell infiltration: increased CD8+ T-cell infiltration
[1]; CT26 tumors in BALB/c mice, concomitant anti-CD8 antibody, FIG. 6D
  reduction in tumor growth with concomitant anti-CD8 antibody: could be blocked
[1]; CT26 tumors, combination with anti-PD-1 antibody, FIG. 7
  CT26 tumor growth, combination of Compound I and anti-PD-1 antibody: the combination enhanced the activity of anti-PD1 immunotherapy
[1]; CT26 tumors, each agent alone, FIG. 7
  CT26 tumor growth, single agent: substantially reduced
MC38 cells
  cytokine gene expression: induces cytokine gene expression
